This note sets out measurements from patent US20240398899A1 (priority 2021, published 2024).

Test [1] has as its system SH-SY5Y neuronal cells. As to the kind of experiment: Cytoprotective effect against MPP+ iodide induced damage, MTT assay. The note with it: MPP+ iodide 1 mM. Here is the method: The Human Neuronal SH-SY5Y Cells were counted using hemocytometer and plated in 96 well plate at a density of 25,000 cells/well and incubated at 37° C. for 24 h. After incubation, cells were treated with recombinant lectin protein having the sequence of SEQ ID NO: 1 at concentrations ranging from 0.001 μg/ml 50 μg/ml for 24 h. After 24 h of treatment, cells were exposed to neurotoxin (MPP+ iodide, 1 mM) for 24 h. Cells treated with MPP+ iodide alone were included as negative control. Untreated cells were included as control. […] After treatment, the cytoprotective effect of SEQ ID NO: 1 on cell viability was assessed by 3-(4,5-dimethythiazol-2-yl)-2,5-diphenyl tetrazolium bromide (MTT) assay: The plate was taken out and 20 μl of 5 mg/ml of MTT 3-(4,5-dimethythiazol-2-yl)-2,5-diphenyl tetrazolium bromide solution was added to all the wells. The SH-SY5Y cells were incubated for 3 h at 37° C. The supernatant was aspirated and 150 μl of DMSO was added to each well to dissolve formazan crystals. The absorbance of each well was read at 540 nm using Synergy HT micro plate reader. The protective effect of the SEQ ID NO: 1 on survival of SH-SY5Y cells against MPP+ iodide induced damage was determined as: The viability of cells was determined as:
Where, the percentage cytotoxicity corresponding to each treatment was calculated as follows:
[formula] • X=Absorbance of cells treated with MPP+ iodide/recombinant lectin having SEQ ID NO: 1+MPP+Iodide • R=Absorbance of Control cells (Untreated) • Percentage protection was calculated as:
[(Absorbance of SEQ ID NO:1+MPP+Iodide)−(Absorbance of MPP+Iodide)/(Absorbance of Untreated)−(Absorbance of MPP+Iodide alone)]*100
For orientation: Tetrazolium dyes change colour on reduction, which living cells bring about.

Test [2] concerns Dopamine. Briefly: Parkinson biomarker multiplex analysis/ELISA, MPP+ damaged SH-SY5Y. In kind it is cell-based, human. The note with it: MPP + Iodide (2 mM). As to the method:
(§1) After overnight incubation as in the previous examples, cells were treated with recombinant lectin protein having SEQ ID NO: 1 at different concentrations ranging from 0.001 μg/ml-1 μg/ml for 24 h for Parkinson disease and 0.01 μg/ml-25 μg/ml for 24 h for Alzheimer's disease. • Parkinson Disease: After 24 h of pre-treatment with recombinant lectin protein having SEQ ID NO: 1, cells were exposed (MPP+) for another 24 h. Cells treated with MPP+Iodide were included as Control. […] The cells treated with Galantamine were included as positive Control.
(§2) The levels of markers were determined by multiplex analysis as: Cell culture supernatants were diluted (1:2) with Calibrator Diluent. 50 μl of standard or sample was added per well. 50 μl of the microparticle cocktail was added to each well of the microplate and covered with a foil plate sealer. The plate was incubated for 2 hours at room temperature on a horizontal orbital microplate shaker. The plate was washed using a magnetic device designed to accommodate a microplate. Washing was done by applying the magnet to the bottom of the microplate, allowing 1 minute before removing the liquid, filling each well with wash buffer (100 μl) and allowing 1 minute before removing the liquid again. 50 μl of diluted Biotin-Antibody Cocktail was added to each well. Covered the plate with a foil plate sealer and incubated for 1 hour at room temperature on the shaker. Repeated the wash step. 50 μl of diluted Streptavidin-PE was added to each well. The plate was securely covered with a foil plate sealer and incubated for 30 minutes at room temperature on the shaker. Repeated the wash step. The microparticles were resuspended by adding 100 μl of Wash Buffer to each well. The plate was incubated for 2 minutes on the shaker and read within 90 minutes using Magpix® multiplex machine. Levels of biomarkers for Parkinson's and Alzheimer's disease were estimated using Magpix® multiplex machine.
(§3) For Parkinson's the percent modulation in each sample was determined as follows:
(§4) [{Concentration of biomarkers(pg/ml) in SEQ ID NO:1+MPP+Iodide treated cells)−Concentration of biomarkers(pg/ml) in Control cells(MPP+Iodide alone treated)}/Concentration of biomarkers(pg/ml) in Control cells(MPP+Iodide alone treated)]*100

The subject of test [3] is ICAM1/CD54. Described as above. The following applies: MPP + Iodide (2 mM). In kind it is cell-based, human. As to the method: as §1, §2, §3, §4
Test [4] deals with Park7/DJ-1. The description is as above. The test is classed as cell-based, human. The note with it: MPP + Iodide (2 mM). Here is the method:
as §1, §2, §3, §4

The test system of test [5] is S100b. Described as above. The note with it: MPP + Iodide (2 mM). In kind it is cell-based, human. As to the method: as §1, §2, §3, §4
The subject of test [6] is Serotonin. The test is described as above. The test is classed as cell-based, human. The note with it: MPP + Iodide (2 mM). Here is the method:
as §1, §2, §3, §4

For test [7], the system named is Calbindin D. The test is described as above. The test is classed as cell-based, human. The note with it: MPP + Iodide (2 mM). Here is the method: as §1, §2, §3, §4

As to `C#CCN(C)[C@H](C)Cc1ccccc1` [Deprenyl, reference compound], the “Percentage Protection” value in test [1] (1 μM) turned out to be 41.5%; in test [1] (10 μM), 49%; in test [1] (25 μM), 75.6%; in test [1] (50 μM), 74.7%; in test [1] (100 μM) it was 67.5%. Also, the “% Change of Biomarkers markers (with respect to Control) Dopamine” value is reported as 21.2% in test [2] (10 μM), 37.7% in test [2] (50 μM) and −47.2% in test [2] (100 μM). Besides, the entries for the “% Change of Biomarkers markers (with respect to Control) ICAM1/CD54” value in test [3] (10 μM), in test [3] (50 μM) and in test [3] (100 μM) were 12.9%, −23.7% and −37%, respectively. The “% Change of Biomarkers markers (with respect to Control) Park7/DJ-1” value is recorded as −6.8% in test [4] (10 μM), −7.9% in test [4] (50 μM) and −9.2% in test [4] (100 μM). The “% Change of Biomarkers markers (with respect to Control) S100b” value in test [5] (10 μM) is recorded as −6.7%; in test [5] (50 μM) it was −6.5%; in test [5] (100 μM) it was −6.5%. Besides, the “% Change of Biomarkers markers (with respect to Control) Serotonin” value worked out at 9.1% in test [6] (10 μM), 33% in test [6] (50 μM) and 17.1% in test [6] (100 μM). Moreover, the entries for the “% Change of Biomarkers markers (with respect to Control) Calbindin D” value in test [7] (10 μM), in test [7] (50 μM) and in test [7] (100 μM) were 5%, 0% and 3.3%, respectively.
